Here are results for 13 compounds from PubChem BioAssay (NCI).

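Protocol summary: plate cells (96-well), add compound at 5 concentrations, incubate 48 h, interpolate endpoints linearly. The concentration for 50% growth inhibition is given as GI50. TGI is the concentration that stops growth completely.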

Among the test systems are TK-10 renal; UACC-62 melanoma; MDA-MB-435; SF-539 CNS; SF-268 CNS; COLO 205 colon; CAKI-1 renal; MDA-MB-231 breast; IGROV1 ovarian; MALME-3M melanoma.
Common to all, as to test: growth of human tumour cells (NCI), 48 h

With `COc1ccc(Cn2cc3c(c2)-c2oncc2CC3)cc1OC`, the GI50 is 0.453 µM in the experiment on TK-10 renal; 0.273 µM with UACC-62 melanoma; 0.0774 µM in the experiment on MDA-MB-435; 0.14 µM with SF-539 CNS; 0.43 µM with SF-268 CNS; 0.134 µM with COLO 205 colon. Also, the GI50 with CAKI-1 renal is 0.193 µM; in the experiment with MDA-MB-231 breast, 0.255 µM; with IGROV1 ovarian, 0.391 µM. The TGI in the experiment on TK-10 renal was above 50 µM; in the experiment on UACC-62 melanoma, above 50 µM; in the experiment on MDA-MB-435, 0.235 µM; in the experiment with SF-539 CNS it was 0.559 µM; in the experiment with SF-268 CNS, above 50 µM; in the experiment on COLO 205 colon it was 0.346 µM. Besides, the TGI in the experiment on CAKI-1 renal is above 31.3 µM; in the experiment with MDA-MB-231 breast it was above 14.3 µM; in the experiment with IGROV1 ovarian, above 46.3 µM.
With `CC1CCC(=O)C(C(O)CC2CC(=O)N(c3ccccc3)C(=O)C2)C1` (stereo unspecified), the TGI in the experiment with TK-10 renal, with UACC-62 melanoma, with SF-539 CNS, in the experiment on MALME-3M melanoma, with SF-268 CNS and in the experiment on COLO 205 colon was above 100 µM in each case. Moreover, the TGI with CAKI-1 renal and in the experiment with IGROV1 ovarian was above 100 µM in each case.
Regarding `O=C1C2c3[nH]c4ccccc4c3C3CCCCCC3C2C(=O)N1c1ccccc1` (stereo unspecified), the TGI is above 100 µM in the experiment on TK-10 renal; above 100 µM in the experiment on UACC-62 melanoma; above 52 µM with SF-539 CNS; 41.1 µM in the experiment on MALME-3M melanoma; 99.8 µM in the experiment with SF-268 CNS; above 100 µM in the experiment with COLO 205 colon. For the same compound, the values for the TGI in the experiment with CAKI-1 renal and with IGROV1 ovarian were above 100 µM and 72 µM, respectively.
With `COc1ccc(-c2ccccc2)c2[nH]c3c(c12)CCNC3=O`, the TGI with TK-10 renal, in the experiment on UACC-62 melanoma, with SF-539 CNS, in the experiment with MALME-3M melanoma, in the experiment on SF-268 CNS and with COLO 205 colon was above 100 µM each time. In addition, the TGI in the experiment with CAKI-1 renal and in the experiment with IGROV1 ovarian was above 100 µM each time.
On to `CC1=C(C(=O)NCc2ccccc2)C(c2ccccc2C)C(C(=O)NCc2ccccc2)=C(C)N1`, for which the TGI was 99.6 µM with TK-10 renal; 38.8 µM in the experiment with UACC-62 melanoma; 48.8 µM with SF-539 CNS; above 100 µM with MALME-3M melanoma; 57.6 µM in the experiment with SF-268 CNS; above 100 µM with COLO 205 colon. Besides, the TGI in the experiment with CAKI-1 renal is above 100 µM; with IGROV1 ovarian it was above 72.3 µM.
For `CN(NC1OC(CO)C(O)C(O)C1O)c1ccccc1` (stereo unspecified), the TGI in the experiment on TK-10 renal, in the experiment with UACC-62 melanoma, in the experiment on MALME-3M melanoma, in the experiment with SF-268 CNS, in the experiment on COLO 205 colon and in the experiment with CAKI-1 renal was above 100 µM in each case. The same compound returned a TGI in the experiment with IGROV1 ovarian above 100 µM.
With `CN(C)CCn1cnc2ncccc2c1=O`, the TGI in the experiment with TK-10 renal, in the experiment with UACC-62 melanoma, in the experiment on SF-539 CNS, in the experiment with MALME-3M melanoma, in the experiment on SF-268 CNS and in the experiment with COLO 205 colon was above 100 µM each time. For the same compound, the TGI in the experiment with CAKI-1 renal and in the experiment with IGROV1 ovarian was above 100 µM in each case.
On to `CCCCCC[C@@H](C)Nc1nc2ccccc2c2occc12`, for which the GI50 with TK-10 renal was 10 µM; in the experiment with UACC-62 melanoma, 13.2 µM; with MDA-MB-435, 15.5 µM; in the experiment on SF-539 CNS, 10.5 µM; in the experiment with SF-268 CNS it was 14.7 µM; with COLO 205 colon it was 21.2 µM. The GI50 in the experiment on CAKI-1 renal was 13.6 µM; with MDA-MB-231 breast, 10.8 µM; with IGROV1 ovarian it was 0.0871 µM. For the same compound, the TGI in the experiment with TK-10 renal was 23.6 µM; in the experiment with UACC-62 melanoma it was 25.9 µM; in the experiment on MDA-MB-435, 40.2 µM; with SF-539 CNS, 22.5 µM; with SF-268 CNS, 38.7 µM; in the experiment with COLO 205 colon, above 100 µM. The TGI with CAKI-1 renal was determined as 32.1 µM; in the experiment on MDA-MB-231 breast, 22.7 µM; in the experiment on IGROV1 ovarian, 11.5 µM.
Take `CN(C)C(=O)NC(=S)N(C)C`: the TGI in the experiment on TK-10 renal, in the experiment with UACC-62 melanoma, with SF-539 CNS, in the experiment with MALME-3M melanoma, in the experiment with SF-268 CNS and with CAKI-1 renal was above 100 µM each time. This compound also came in with a TGI in the experiment on IGROV1 ovarian above 100 µM.
For the compound `CC(=O)[CH-]C(=O)c1ccccc1.CC(=O)[CH-]C(=O)c1ccccc1.CC(C)CCC[C@H](C)C1CCC2[C@@H]3CC=C4C[C@@H]([O-])CC[C@]4(C)C3CC[C@@]21C.CC(C)CCC[C@H](C)C1CCC2[C@@H]3CC=C4C[C@@H]([O-])CC[C@]4(C)C3CC[C@@]21C.Cl.[Ti+4]` (stereo partly specified), the GI50 in the experiment on TK-10 renal was above 25 µM; in the experiment with UACC-62 melanoma, above 25 µM; with SF-539 CNS it was above 25 µM; in the experiment with MALME-3M melanoma it was 21.4 µM; with SF-268 CNS it was above 25 µM; in the experiment with COLO 205 colon, above 25 µM. Further, the GI50 in the experiment on CAKI-1 renal and in the experiment with IGROV1 ovarian was above 25 µM each time. In addition, the TGI in the experiment on TK-10 renal, in the experiment with UACC-62 melanoma, with SF-539 CNS, with MALME-3M melanoma, in the experiment with SF-268 CNS and in the experiment on COLO 205 colon was above 25 µM each time. The TGI in the experiment with CAKI-1 renal and in the experiment with IGROV1 ovarian was above 25 µM throughout.
For the compound `Clc1ccc(OCc2nnc3n2N=C(c2ccc(Br)cc2)CS3)cc1`, the TGI was 35.6 µM in the experiment with TK-10 renal, above 100 µM in the experiment with UACC-62 melanoma, 24.5 µM with SF-539 CNS and above 100 µM with MALME-3M melanoma.
On to `Cc1ccc(Cl)cc1NC(=O)c1cc2ccccc2cc1O`, for which the GI50 was 0.948 µM in the experiment on TK-10 renal; 0.308 µM with UACC-62 melanoma; 0.356 µM in the experiment on SF-539 CNS; 0.211 µM in the experiment on MALME-3M melanoma; 0.426 µM with SF-268 CNS; 1.7 µM in the experiment with COLO 205 colon. Moreover, the GI50 with CAKI-1 renal is 0.219 µM; in the experiment on MDA-MB-231 breast, 0.377 µM; in the experiment on IGROV1 ovarian, 0.189 µM. Moreover, the TGI in the experiment with TK-10 renal was 4.46 µM; in the experiment with UACC-62 melanoma, 2.65 µM; with SF-539 CNS it was 1.82 µM; with MALME-3M melanoma, 0.692 µM; with SF-268 CNS, above 32.6 µM; in the experiment with COLO 205 colon, 3.48 µM. For the same compound, the figures for the TGI with CAKI-1 renal, with MDA-MB-231 breast and in the experiment with IGROV1 ovarian were 0.921 µM, 2.06 µM and 3.95 µM, respectively.
On to `CC(=O)OCC1OC(OCc2ccccc2)C(Br)C(OC(C)=O)C1OC(C)=O` (stereo unspecified), for which the TGI in the experiment on TK-10 renal, in the experiment on UACC-62 melanoma, with SF-539 CNS, with MALME-3M melanoma, in the experiment with SF-268 CNS and with COLO 205 colon was above 100 µM throughout. Further, the TGI with CAKI-1 renal and in the experiment on IGROV1 ovarian was above 100 µM in each case.
